Source: patent US20240271329A1, “CYCLIC COMPOUND LIBRARY AND CONSTRUCTION METHOD THEREFOR” (Yafei Shanghai Biology Medicine Science & Technology Co. …, priority 2021, published 2024)
Read-outs that look alike come from different tables or passages of the source. Square brackets hold non-standard residues; d marks the D form. Peptide text beside a SMILES is read from it. * marks the point of attachment. ξ: configuration not given here. Phe(3-CF3) = N[C@@H](Cc1cccc(C(F)(F)F)c1)C(=O)O; NMeF = CN[C@@H](Cc1ccccc1)C(=O)O; 3Pal = N[C@@H](Cc1cccnc1)C(=O)O; Cha = N[C@@H](CC1CCCCC1)C(=O)O; Cit = NC(=O)NCCC[C@H](N)C(=O)O; NMeL = CN[C@@H](CC(C)C)C(=O)O; ξP = O=C(O)C1CCCN1; OtBu = CC(C)(C)O*; Sar = CNCC(=O)O

Test: MDCK monolayer membrane permeability (A→B transport)
Type: in vitro ADME, canine
Conditions: dog
Experimental: In order to determine the cyclic peptide compounds 9-12 obtained in the above examples, an MDCK model was established to determine their membrane permeability. The MDCK cell line was sourced from Madin Darby canine epithelial cell lines, and the monolayer MDCK cell was the best cytological model to study the in vivo processes such as absorption and reabsorption of drugs in renal tubules. The MDCK cells in a disperse culture flask were digested, and seeded to Millicell CPI at 5×10^4/cm^2; 400 μL of MEM culture solution containing 10% FBS was added to a side A (a luminal side, Apical), and 800 μL of the MEM culture solution was added to a side B (a basolateral side); and the mixture was incubated in an incubator containing 5% CO2 at 37° C. The solution was changed every day. It should be noted that a pipette should not to touch a cell membrane, thereby avoiding damaging the cell layer; and the transmembrane resistance (i.e., trans-epithelial electrical resistance, TEER) was regularly measured by using Millicell2ERS to test the integrity of the cell monolayer.
The A→B transport from the apical end (A) to the basolateral end (B) of the monolayer membrane of the MDCK cells was observed. For the determination of A→B, 450 μL of a drug or a positive control HEPES solution was added to the apical end of the membrane as a feeding cell, and 1300 μL of a blank HEPES solution was added to the basolateral end as a receiving cell. A Transwell plate was placed on a constant-temperature shaker at 37° C. and shaken; after 90 min, a sample solution was extracted respectively from the feeding cell and the receiving cell; acetonitrile was added to precipitate proteins, and then vortexing, centrifuging and transferring were carried out; and the permeance was measured by LC/MS. Based on this permeance, a membrane permeance coefficient (Papp, i.e., apparent permeability, which was a specific evaluation parameter) was calculated. The Papp greater than 1×10^−6 cm/s indicated the absorption of more than 60% of a drug, and the Papp greater than 10×10^−6 cm/s indicated the absorption of more than 80% of drug molecules.

[1] = MDCK A→B, not, read-out: Papp values
[2] = apical to basolateral, MDCK monolayer, 37° C., 90 min, LC/MS, read-out: MDCK Papp(A − B)

Compound	Papp A→B at 90 min [1] [×10⁻⁶ cm/s]	Papp A→B at 90 min [2] [×10⁻⁶ cm/s]
CC(C)C[C@@H]1NC(=O)CNC(=O)[C@H](CC(N)=O)NC(=O)C2CCCN2C(=O)[C@H]2CCCN2C(=O)[C@H](CCC(=O)OC(C)(C)C)NC(=O)CN(C)C(=O)[C@H](Cc2cccc(C(F)(F)F)c2)NC(=O)[C@H](CC(C)C)N(C)C(=O)[C@H](Cc2ccccc2)N(C)C1=O (stereo partly drawn) [Compound 9] (cyclo(E(OtBu)[dP][ξP]NGL[NMeF][NMeL][Phe(3-CF3)][Sar]))	> 10	11.3
CC(C)C[C@@H]1NC(=O)CNC(=O)[C@H](CC(N)=O)NC(=O)C2CCCN2C(=O)[C@H]2CCCN2C(=O)[C@H](CCC(=O)OC(C)(C)C)NC(=O)CN(C)C(=O)[C@H](Cc2cccnc2)NC(=O)[C@H](CC(C)C)N(C)C(=O)[C@H](Cc2ccccc2)N(C)C1=O (stereo partly drawn) [Compound 10] (cyclo([3Pal][Sar]E(OtBu)[dP][ξP]NGL[NMeF][NMeL]))		4.8
CC(C)C[C@@H]1NC(=O)CNC(=O)[C@H](CC(N)=O)NC(=O)C2CCCN2C(=O)[C@H]2CCCN2C(=O)[C@H](CCC(=O)OC(C)(C)C)NC(=O)CN(C)C(=O)[C@H](CC2CCCCC2)NC(=O)[C@H](CC(C)C)N(C)C(=O)[C@H](Cc2ccccc2)N(C)C1=O (stereo partly drawn) [Compound 11] (cyclo([Cha][Sar]E(OtBu)[dP][ξP]NGL[NMeF][NMeL]))	> 10	16.2
CC(C)C[C@@H]1NC(=O)CNC(=O)[C@H](CC(N)=O)NC(=O)C2CCCN2C(=O)[C@H]2CCCN2C(=O)[C@H](CCC(=O)OC(C)(C)C)NC(=O)CN(C)C(=O)[C@H](CCCNC(N)=O)NC(=O)[C@H](CC(C)C)N(C)C(=O)[C@H](Cc2ccccc2)N(C)C1=O (stereo partly drawn) [Compound 12] (cyclo([Cit][Sar]E(OtBu)[dP][ξP]NGL[NMeF][NMeL]))		0.9
